Data set [1] deals with P-glycoprotein (P-gp) (Homo sapiens, UniProt P08183). Conditions: [^3H]-digoxin 1 μmol·L^−1, enisamium iodide 10 μmol·L^−1, Caco-2.
Experimental: Transport studies. Caco-2 monolayers were rinsed twice with KRB to remove the cell culture medium. Fresh KRB (pH 7.4) was filled into the acceptor compartment and the transport solution (test substance in KRB at pH 7.4) into the donor compartment. The cells were equilibrated for 30 min in a CO2 incubator at 37 °C and stayed there between the sample collection points. After pre-incubation, samples were taken from the donor and acceptor compartment, respectively. The concentration of test compound in the donor compartment was defined as initial donor concentration. At 0 min, 30 min, 60 min, 90 min and 120 min 100 µL samples were drawn from the acceptor compartment. The amount of solution removed was replaced by fresh, pre-warmed KRB. At the final pull point, samples were retrieved from the donor compartment, too. All tests were carried out in triplicate. For studies including the P-glycoprotein (P-gp) inhibitor cyclosporin A and the marker compound for P-gp transport inhibitors, [^3H]-digoxin the substances were applied to both the donor and acceptor compartment in the same concentration. […]
[^3H]-propranolol and [^3H]-digoxin were quantified by liquid scintillation counting. […] After an equilibration period of at least 1 h radiation was measured for 2 min per well in a scintillation counter. The recorded counts in a blank sample were subtracted from the value of each test sample.
Data of the permeability study were calculated using MS Excel (Microsoft, Redmond, WA, USA). Apparent permeability coefficient (Papp) was calculated according to the following equation: Papp=ΔQ 1 1/Δt m0 A VD(cm·s^−1) where ΔQ/Δt is the permeability rate (steady state transport rate) obtained from the profile of the transported mass or radioactivity of substrate versus time (µg or dpm·s^−1). Calculated by the linear regression of time and concentration. A is the area of the exposed cell monolayer (cm^2), m0 is the initial mass or radioactivity of test compound in the donor compartment (µg or dpm), and VD is the buffer volume of donor compartment. […]
The nature of data set [2]: Caco-2 monolayer transport (permeability) study. The class given is in vitro ADME, human. Conditions: human; for Papp A→B at 120 min: Caco-2, pH 7.4, Caco-2, monolayer qualification marker, read-out: Papp (AB). The method, then: Cell culture. For the maintenance culture, Caco-2 cells were incubated at 37 °C, 5% CO2, and 90% relative humidity in 75 cm^2 culture flasks with supplemented Dulbecco's Modified Eagle's Medium (DMEM). The cells were passaged once a week using trypsin/ethylenediaminetetraacetic acid (EDTA) solution. Approximately 10^6 cells were seeded per flask. The culture medium was changed three times a week. For the transport studies, the Caco-2 cells were inoculated at a density of 60,000 cells/cm^2 on Transwell filter inserts and placed into 12-well flat-bottom cluster plates. The inserts (apical compartments) were supplied with 0.5 mL and the outer wells (basal compartments) with 1.5 mL of DMEM culture medium. The cells for the present transport study were cultured at 37 °C, 5% CO2 and 90% relative humidity in DMEM culture medium for 18 days until they formed confluent monolayers (31 passages). The culture medium was replaced every 2-3 days. […] Transport studies. […] All tests were carried out in triplicate. […] Testing of integrity of monolayers. Each batch of monolayer Caco-2 cells was inoculated and cultured under the same conditions on Transwell filter inserts in parallel. Qualification of intactness of the Caco-2 monolayer batches prior to the transport studies was carried out in triplicate for each transport condition using the selected transport markers fluorescein, [^3H]-propranolol and rhodamine 123. […] Mobile phase A consisted of 0.1% formic acid in water and mobile phase B of 0.1% formic acid in acetonitrile. […] The samples were kept at 10 °C and injected at a volume of 20 μL. The triple quad mass spectrometer system (Waters) was used in the positive (ESI^+) electrospray mode at 2.63 kV. […] Fluorescein and rhodamine 123 samples (100 μL) were determined by fluorescence reading. The samples were collected in 96 well microtiter plates. The fluorescence intensity was recorded by exciting the sample with light at 485 nm and measuring the emitted fluorescence at 535 nm. The fluorescence emission of a blank sample (Krebs-Ringer bicarbonate buffer (KRB) solution) was used as baseline.

In data set [3] the test system is Caco-2 cells. In words: Tolerability of enisamium iodide to Caco-2 cells (TEER). The class given is cell-based, human. The note with it: positive control. How it is done: For this purpose, the cells were incubated with the highest dose supposed for the permeability studies (100 μM). After an incubation period of 120 min at 37 °C the TEER was checked to assess the integrity of the cell monolayers. […] All experiments were performed in triplicate. As a positive control, sodium dodecyl sulfate was used in this experiment.
The TEER was calculated according to TEER= Rc(A)=(Rc+f−Rf)A (Ω·cm^2). where Rc(A) is the electrical resistance of the monolayer with the area A (Ω cm^2); Rc+f is the electrical resistance of the monolayer including the filter (Ω); Rf is the electrical resistance of the filter without cells (Ω); and A is the area of the monolayer (cm^2).

P-glycoprotein (P-gp), sequence (P08183 whole entry): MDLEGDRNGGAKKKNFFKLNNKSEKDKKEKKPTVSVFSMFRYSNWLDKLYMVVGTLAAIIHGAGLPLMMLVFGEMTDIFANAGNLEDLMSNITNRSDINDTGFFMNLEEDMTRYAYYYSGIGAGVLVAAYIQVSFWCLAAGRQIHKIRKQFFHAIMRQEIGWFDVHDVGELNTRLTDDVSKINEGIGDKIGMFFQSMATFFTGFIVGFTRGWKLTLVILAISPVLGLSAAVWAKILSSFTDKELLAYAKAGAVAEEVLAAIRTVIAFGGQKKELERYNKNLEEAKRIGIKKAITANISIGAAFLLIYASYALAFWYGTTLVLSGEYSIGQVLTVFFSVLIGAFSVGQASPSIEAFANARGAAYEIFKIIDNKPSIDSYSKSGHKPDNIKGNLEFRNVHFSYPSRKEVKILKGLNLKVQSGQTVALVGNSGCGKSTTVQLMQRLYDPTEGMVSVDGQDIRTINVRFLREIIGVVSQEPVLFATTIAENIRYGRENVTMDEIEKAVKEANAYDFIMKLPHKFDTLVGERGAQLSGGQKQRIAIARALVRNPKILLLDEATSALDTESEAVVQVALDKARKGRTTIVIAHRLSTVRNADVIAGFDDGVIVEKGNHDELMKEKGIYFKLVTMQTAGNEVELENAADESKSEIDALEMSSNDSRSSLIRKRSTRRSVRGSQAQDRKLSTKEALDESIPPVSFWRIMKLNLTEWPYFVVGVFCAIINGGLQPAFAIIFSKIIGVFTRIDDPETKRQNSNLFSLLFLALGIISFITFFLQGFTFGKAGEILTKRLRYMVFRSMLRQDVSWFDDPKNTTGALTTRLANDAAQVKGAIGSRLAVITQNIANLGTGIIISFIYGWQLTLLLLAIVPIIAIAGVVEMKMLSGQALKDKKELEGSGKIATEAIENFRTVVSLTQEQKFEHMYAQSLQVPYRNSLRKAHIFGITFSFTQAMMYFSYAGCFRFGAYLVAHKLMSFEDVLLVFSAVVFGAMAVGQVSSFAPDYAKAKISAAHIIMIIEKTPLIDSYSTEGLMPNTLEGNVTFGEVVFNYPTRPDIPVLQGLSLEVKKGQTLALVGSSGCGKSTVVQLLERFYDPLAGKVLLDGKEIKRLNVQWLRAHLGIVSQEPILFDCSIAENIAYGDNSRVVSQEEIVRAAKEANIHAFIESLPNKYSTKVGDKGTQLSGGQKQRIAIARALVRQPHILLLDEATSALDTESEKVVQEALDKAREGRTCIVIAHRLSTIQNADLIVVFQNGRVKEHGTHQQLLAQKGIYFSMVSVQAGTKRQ

In the case of `C[C@H]1O[C@@H](O[C@H]2[C@@H](O)C[C@H](O[C@H]3[C@@H](O)C[C@H](O[C@H]4CC[C@@]5(C)[C@H](CC[C@@H]6[C@@H]5C[C@@H](O)[C@]5(C)[C@@H](C7=CC(=O)OC7)CC[C@]65O)C4)O[C@@H]3C)O[C@@H]2C)C[C@H](O)[C@@H]1O` [[^3H]-digoxin, reference compound], in data set [1], the “Bi-directional transport in presence of enisamium iodide” value is reported as “transported much more in the ba direction as compared to the ab”. For `O=C1OC2(c3ccc(O)cc3Oc3cc(O)ccc32)c2ccccc21` [fluorescein, reference compound], the Papp A→B at 120 min in data set [2] was 0.18 ×10⁻⁶ cm/s. Same read-out and setting: to `CC(C)NCC(O)COc1cccc2ccccc12` (stereo not shown) [propranolol, reference compound] belongs 19.6 ×10⁻⁶ cm/s.

Turning to `COC(=O)c1ccccc1-c1c2ccc(=N)cc-2oc2cc(N)ccc12` [rhodamine 123, reference compound], in data set [2] (pH 7.4, Caco-2, efflux ratio, monolayer qualification marker, read-out: Papp (BA)/Papp (AB)), the efflux ratio at 120 min came to 17.1. This compound gave a Papp B→A at 120 min in data set [2] (pH 7.4, Caco-2, monolayer qualification marker) of 4.5 ×10⁻⁶ cm/s. Turning to `CCCCCCCCCCCCOS(=O)(=O)[O-].[Na+]` [sodium dodecyl sulfate], the TEER after recovery in data set [3] (growth medium within 24 h) is on record as 118 Ω·cm^2. The TEER after exposure in data set [3] (immediate and remaining reduction) is given as < 108 Ω·cm^2.

For the origin of these results see paper PMC5874533 (Scientia Pharmaceutica, 2018).
